Laboratory results taken from patent publication US20250084121A1, “BIOREACTIVE COMPOSITIONS AND METHODS OF USE THEREOF” (The Regents of the University of California, priority 2018, published 2025).

Experiments:
[1] = system: HeLa-EGFP-182TAG reporter cells; test: FACS analysis of Uaa incorporation into EGFP-182TAG reporter cells; format: cell-based
Procedure: (§1) FSY incorporation into proteins in mammalian cells was tested. HeLa-EGFP-182TAG reporter cells were transfected with plasmid pMP-FSYRS-3×tRNA, which expresses FSYRS and tRNA^Pyl genes. Wang et al, Nat. Neurosci., 10:1063-1072 (2007). Suppression of the 182TAG codon would produce full-length EGFP rendering cells fluorescent. After transfection, cells were incubated with FSY of various concentrations at 37° C. for 24 or 48 h followed by flow cytometry. […] The fluorescence intensity increased with FSY concentration and incubation time (FIG. 2B, FIG. 7). As a positive control, p-azido-L-phenylalanine (AzF) was incorporated into reporter cells in parallel using plasmid pIre-Azi3, which is the most efficient Uaa incorporation system in mammalian cells in our hands. Coin et al, Cell, 155:1258-1269 (2013). […] No fluorescence signal was detected when FSY was not added.
FACS analysis of Uaa incorporation into HeLa-GFP-182TAG reporter cells: One day before transfection, 4.5×10^4 HeLa-EGFP-182TAG reporter cells (Wang et al, Nat. Neurosci., 10:1063-1072 (2007)) were seeded in a Greiner bio-one 24 well-cell culture dish containing 500 μL of DMEM media with 10% FBS, and incubated at 37° C. in a CO2 incubator. […] The cells were resuspended in 300 μL of FACS buffer (1×PBS, 2% FBS, 1 mM EDTA, 0.1% sodium azide, […]) and analyzed by BD LSRFortessa™ cell analyzer.

E. coli DH10B cells = test: Growth curve of E. coli DH10B cells in the presence or absence of FSY; format: cell-based; conditions: 1 mM FSY, 37° C.
Procedure: FIG. 6 provides a growth curve of E. coli DH10B cells at 37° C. in the presence or absence of 1 mM FSY. The experiments were repeated for three times.
The incorporation specificity of FSY into proteins in E. coli was evaluated. The Zspa affibody (Afb) gene containing a TAG codon at position 36 (Afb-36TAG) was co-expressed with the tRNA^Pyl/FSYRS pair in E. coli. In the absence of FSY, no full-length Afb was detected; when 1 mM FSY was added in growth media, full-length Afb36FSY was produced with a yield of 1.6 mg/L (FIG. 1C). The purified Afb36FSY was analyzed by electrospray ionization time-of-flight mass spectrometry (ESI-TOF MS) (FIG. 1D). A peak observed at 7855.96 Da corresponds to intact Afb containing FSY at site 36 (Afb36FSY: expected 7856.69 Da). A peak measured at 7724.77 Da corresponds to Afb36FSY lacking the initiating Met (Afb36FSY-Met: expected 7725.50 Da). […] FSY was also incorporated at position 24 of the Z protein and analyzed with tandem MS.

293T cells = test: Cell viability assay with various concentrations of FSY; format: cell-based
[2] = system: HeLa-EGFP-182TAG reporter cells; test: Fluorescence confocal microscopy of reporter cells; format: cell-based; conditions: in the presence of FSY
Procedure: as §1, with “(2013). FSY incorporation compared favorably with AzF, reaching 76% of the AzF level. […] Chen et al, J. Am. Chem. Soc., 138:7353-7364 (2016).” for “(2013).”
Fluorescence confocal microscopy of HeLa-EGFP-182TAG reporter cells: One day before transfection, 4.5×10^4 HeLa-EGFP-182TAG cells were seeded in a Greiner bio-one CELLview glass bottom dish containing 500 μL of DMEM media with 10% FBS, and incubated at 37° C. in a CO2 incubator. […]

[3] = system: HeLa-EGFP-182TAG reporter cells; test: Cell viability assay with various concentrations of FSY; format: cell-based
[4] = system: STAT5 phosphorylation in BAF3 cells, a cell line with hGH receptor expression; test: pSTAT5 production in BAF3 cells upon stimulation by hGH (Western blot); format: cell-based; conditions: Western blot of cell lysates
From the text: It was also examined whether FSY incorporation into hGH would affect its biological activity. Upon hGH binding with its receptor, STAT5 is phosphorylated as a downstream signal via the JAK/STAT pathway, leading to transcription of genes important for cell immunity, proliferation, and apoptosis (Waters, M J. et al. Clin. Exp. Pharmacol. Physiol. 1999, 10760-764). The inventors stimulated BAF3 cells, a cell line with hGH receptor expression, with hGH(WT) and hGH(FSY), and then probed pSTAT5 expression using Western blot analysis of cell lysates.

[5] = target: T1, extracellular domain of the hGH receptor (Homo sapiens, UniProt P10912); test: Covalent crosslinking of hGH with the extracellular domain of hGH receptor (Western blot); format: binding; conditions: PBS buffer, different durations of time, Western blot anti-Hisx6
T1 construct: incubated with the extracellular domain of the hGH receptor
T1 sequence (P10912 19-264): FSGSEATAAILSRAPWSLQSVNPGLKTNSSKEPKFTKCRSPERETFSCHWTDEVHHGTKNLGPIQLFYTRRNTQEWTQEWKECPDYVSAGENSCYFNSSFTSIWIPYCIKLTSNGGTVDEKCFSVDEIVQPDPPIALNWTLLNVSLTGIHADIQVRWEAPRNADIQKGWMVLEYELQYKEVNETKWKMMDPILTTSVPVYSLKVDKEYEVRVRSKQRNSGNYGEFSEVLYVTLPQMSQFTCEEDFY

Row | covalent crosslinking with the hGH receptor (band at ~50 kD) [5] | Compound | FSY incorporation relative to the AzF level ([1]; EGFP-182TAG suppression in HeLa reporter cells, AzF as positive control) [%] | EGFP fluorescence by flow cytometry ([1]; cells transfected with pMP-FSYRS-3×tRNA, FSY at 37° C. for 24 or 48 h) | E. coli growth (cytotoxicity) (E. coli DH10B cells) | toxicity to 293T cells (293T cells) | cell morphology [2] | toxicity to HeLa cells [3] | stimulation of STAT5 phosphorylation [4]
1 | – | N[C@@H](Cc1ccc(OS(=O)(=O)F)cc1)C(=O)O [FSY, fluorosulfate-L-tyrosine] | 76 | Strong EGFP fluorescence | did not affect E. coli growth | no obvious toxicity | remained normal | no obvious toxicity | –
2 | covalently crosslinked | hGH(FSY): Human growth hormone with FSY genetically incorporated at site 68 | – | – | – | – | – | – | the same effect of stimulating STAT5 phosphorylation as the hGH(WT)
